Consider three substances from patent US9867884B2, “Vascular delivery systems” (Ben-Gurion University of the Negev Research and Development …, priority 2008, dated 2018).

Where two headings read alike, the source gives them in different places. Ends that are not written are not given here. * marks the point of attachment. Methacryloyl = C=C(C)C(=O)*

Experiment [1] concerns the target T1, E-selectin (Homo sapiens, UniProt P16581).
T1 sequence (P16581 22-556 limits assumed): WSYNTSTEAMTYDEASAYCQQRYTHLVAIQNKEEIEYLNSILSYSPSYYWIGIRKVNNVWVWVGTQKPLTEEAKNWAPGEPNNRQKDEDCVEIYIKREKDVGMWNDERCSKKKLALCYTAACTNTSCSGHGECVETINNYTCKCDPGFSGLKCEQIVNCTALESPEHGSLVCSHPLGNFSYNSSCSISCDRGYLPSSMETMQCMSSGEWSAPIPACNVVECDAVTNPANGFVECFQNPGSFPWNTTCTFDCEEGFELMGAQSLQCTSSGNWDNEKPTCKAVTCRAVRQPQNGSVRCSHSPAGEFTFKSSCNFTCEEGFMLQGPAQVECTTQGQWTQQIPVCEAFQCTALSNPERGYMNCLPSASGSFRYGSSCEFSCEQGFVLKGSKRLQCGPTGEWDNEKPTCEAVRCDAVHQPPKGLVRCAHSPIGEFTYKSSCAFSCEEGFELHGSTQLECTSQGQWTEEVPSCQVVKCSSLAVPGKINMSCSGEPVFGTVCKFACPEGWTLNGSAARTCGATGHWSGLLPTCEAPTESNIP
Briefly: Inhibition of HL-60 adhesion to recombinant soluble E-selectin coated plates (competitive inhibition assay). Format: binding. The procedure:
The percentage of bound HL-60 cells is determined with o-phenylenediamine as a substrate for myeloperoxidases released from lysed cells. […] FIG. 3B depicts binding in the presence of P-Glu-Gly-QA, PAAsLe^x and pHPMA polymers; FIG. 3C depicts binding of P-Glu-Gly-QA and P-Gly-Gly-Lys(Glu)-QA conjugates.
Affinity of Esbp and P-Esbp to E-selectin was evaluated by a competitive inhibition assay of HL-60 to immobilized E-selectin. […] FIG. 7B the results of an inhibition assay with P-Esbp and P-GG-OH, under the same procedure as in FIG. 7A. In this figure diamonds are P-Esbp and squares are P-GG-OH.
The percentage of bound HL-60 cells is determined with o-phenylenediamine as a substrate for myeloperoxidases released from lysed cells. All assays is performed in duplicates.

Experiment [2] concerns leukocyte adhesion. To be noted: have been shown (prior report); read-out: IC50 of inhibition of leukocyte adhesion; cited from earlier work.
In experiment [3] the test system is E-selectin expressing cells (human IVECs). Briefly: Confocal microscopy of uptake and lysosomal colocalization of FITC-labeled copolymer conjugates in IVECs. Format: cell-based. The following applies: Example 17, activated and non-activated human IVECs (FIG. 14). The procedure:
Internalization of P-sLe^x-FITC and P-QA-FITC conjugates by endothelial cells was studied using confocal laser scanning microscopy (CLSM). Human IVECs grown on cover glass, and treated with the polymer conjugate, and probed for localization of the polymer within lysosomal vessicles. After 24 hours incubation, cells are washed with cold phosphate-buffered saline (PBS) and fixed with 4% PFA. The cells on the cover glass are mounted in antibleach reagent on slides, examined using a CLSM, and analyzed.
Confocal microscopy was used to evaluate the subcellular fate of the FITC labeled copolymer conjugates by human immortalized vascular endothelial cells, IVECs. Lysotracker Red DND-99 (Molecular Probes, Leiden, The Netherlands) was selected to visualize lysosomes. Cells ([…]) were seeded onto gelatin coated cover slips in 24 wells plate with 500 μL endothelial cells culture medium (Promocell) and incubated for 24 hr. […] Quantitative analysis was performed using Image-Pro Plus 4.0 (Media Cybernetics, Silver Spring, Md.). Fluorescence intensities were expressed in arbitrary units per square micron. […]
Confocal microscopy was used to evaluate the uptake of P-Esbp. […] After removal of medium cells were incubated with 0.5 ml medium with 50 μg/ml of FITC labeled P-Esbp solution for 6 or 24 hours and subjected to fluorescence microscopy. […]

The test system of experiment [4] is E-selectin expressing cells (IVECs). Briefly: Flow cytometry of binding and uptake of FITC-labeled conjugates by IVECs. Format: cell-based, human. To be noted: 1 h at 4° C., E-selectin expressing cells (FIG. 12). The procedure:
FIG. 11A-F depicts the results of flow cytometry assays of IVECs incubated with P-Esbp at different temperatures. FIGS. 11(A)-(D) depict results of IVECs incubated 4° C. for 1 hour, while FIGS. 11(E)-(F) depict results of IVECs incubated 37° C. for 15 hr in activated (F) and non-activated (E) cells. FIGS. 11A and 11B show results of incubation with P-Esbp at a concentration of 10 and 50 μg/ml, respectively in TNF-α activated cells, versus 11C and D, which show the results of non-activated cells incubated with the same concentration of P-Ebsp, respectively. Fluorescence, size and number of cells were all measured with GUAVA Tech-Mini Easycyte at 520 nm. Statistical analysis of the results was performed with Cytosoft software (GUAVA Tech). Gates for size and fluorescence were set according to the control experiment with P-GG-OH incubated with non activated IVEC cells.
At 37° C. […]
E-selectin expressing cells were treated with P-Esbp and P-Scrmb as described in previous examples, to determine binding, in activated and non-activated cells (FIG. 12). Cells were treated with P-Esbp and P-Scrmb conjugates for 1 h at 4° C. and evaluated for binding. […] Binding of P-Esbp and scrambled Esbp peptide sequence polymer conjugates (P-Scrmb) to E-selectin expressing cells was similarly evaluated, when cells were also contacted with or without free peptides (FIG. 13). […]
Background: In flow cytometry, cells or beads pass a laser one at a time.

The term IC50 denotes the concentration that inhibits the measured activity by half. On to DITWDQLWDLMK [Esbp, reference compound], for which the IC50 was 0.01 mM in experiment [1] (Esbp monomer, FIG. 7A, read-out: IC50) and 4 nM in experiment [2].
Turning to “N-methacryloyl-aminopropyl-Glutamyl-Glycyl-quinic acid [MAP-Glu-Gly-QA]”, the IC50 in experiment [1] (monomers, HL-60 adhesion to immobilized E-selectin, 15 min (FIG. 3A), read-out: Inhibition of 50% binding (IC50) value) was found to be 10 mM.
Take “P-Scrmb: scrambled Esbp peptide sequence polymer conjugate, GKMIDWTWLQLDD (SEQ ID NO: 8) (Methacryloyl-GGGKMIDWTWLQLDD; also: polymer conjugate, FITC)”: the “internalization and colocalization with lysosomal marker” value in experiment [3] is listed as “did not show reasonable internalization or colocalization”. The “percentage of labeled cells” value in experiment [4] is 6%.
